In assay [1] the test system is Scleraxis (Scx) gene transcriptional activation in TT-D6 Scx-luciferase (ScxL) cell line. Put plainly: SCX-LUC in vitro assay (Scx-luciferase reporter). Type of assay: cell-based. As to conditions: Mus musculus.
In assay [2] the test system is Scleraxis (Scx) gene expression in rat tail tendon fascicles. Description: Ex vivo assay, Scx mRNA in tendon fascicles (qPCR). It is filed as cell-based, Sprague Dawley rat. A general note: In qPCR the cycle at which signal appears reflects the starting amount.
Assay [3] has as its system collagen type I (Col1a2) gene expression in rat tail tendon fascicles. Description: Ex vivo assay, Col1a2 mRNA in tendon fascicles (qPCR). It is filed as cell-based, Sprague Dawley rat.
The test system of another assay is tendon lesion. Put plainly: In vivo assay, endochondral ossification readout (Alcian blue) in tendon lesion. The conditions noted are these: 1 mg peri-tendinous injection 3 days post-surgery. As for the experimental part:
Animals were treated 3 days post-surgery with 1 mg of compound of example 32 in 10 ul of vehicle delivered by injection under the skin in the peri-tendinous region. Tendons were harvested 25 days post-treatment. Strong Alcian blue staining could be seen in the lesion in the vehicle treated group which is typical of endochondral tissue forming which further ossifies with time. […] Definiens Tissue Studio software was used for quantitative image analysis of the Alcian blue positive area. Serial step sections encompassing 2 mm of the lesion were used for quantification.

Assay [4] deals with Tenomodulin (Tnmd) gene expression in rat tail tendon fascicles. Description: Ex vivo assay, Tnmd mRNA in tendon fascicles (qPCR). Type of assay: cell-based, Sprague Dawley rat.
The subject of a further assay is Rat tail fascicles. Put plainly: Ex vivo fascicle assay, mechanical testing. Set-up: species or system rat (Sprague Dawley). As to conditions: 1 uM, 37° C., 4 weeks. The text has this: Tail from skeletal mature rat (Sprague Dawley, female, 30-50 weeks old) was removed and kept on ice. Approximately 40 mm long segment was cut from the mid-portion of the tail. Rat tail fascicles (n=12) were carefully extracted from the segment. Fascicles were then randomly selected into three groups, fresh (n=4), vehicle (n=4) and (S)-(1-((4-(3-amino-4-methyl-1H-indazol-5-yl)-3-methylphenyl)sulfonyl)-4,4-difluoropyrrolidin-2-yl)methanol (Test Compound A hereinafter) treated (n=4). Biomechanical properties were measure immediately after extraction for the fresh group. […]
Samples were clamped for mechanical testing using a standard uniaxial material testing machine (ElectroPuls E3000, 50N load-cell, Instron, US) in a custom environmental testing chamber filled with PBS. Samples were preloaded to a position where crimp (macroscopic fascicle waviness) disappeared and initial length (L0) based on grip-to-grip distance was recorded. […] Sample lengths and corresponding forces were recorded to calculate engineering stress and strain. Young's moduli were calculated from the linear region of the stress-strain curves. […]

Assay [5] has as its target recombinant human Jak2 (aa808-1132) (Homo sapiens (Human), UniProt O60674). Put plainly: Kinase selectivity panel, substrate peptide phosphorylation (Caliper). It is filed as biochemical.
For assay [6], the target named is recombinant human Jak1 (aa 866-1154) (Homo sapiens (Human), UniProt P23458). The description is as above. It is filed as biochemical.
The target in assay [7] is recombinant human Jak3 (aa811-1124) (Homo sapiens (Human), UniProt P52333). It is filed as biochemical.
The target of assay [8] is recombinant human Tyk2 (aa888-1187) (Homo sapiens (Human), UniProt P29597). Put plainly: Kinase selectivity panel, substrate peptide phosphorylation (Caliper). As to conditions: 45 uM ATP. Type of assay: biochemical.
Setting [9] is: 96 h, Table 3, four days, read-out: Scx-Luc (EC50 μM).
Setting [10] is: 96 h, Table 3, four days, read-out: Ex vivo Scx (EC50 μM).
Where [11] appears, read: 96 h, Table 3, four days, read-out: Ex vivo Col1a2 (EC50 μM).
[12] abbreviates: 96 h, Table 3, four days, read-out: Ex vivo Tnmd (EC50 μM).
The mark [13] stands for this setting: read-out: Ex vivo SCX (EC50 uM).
The mark [14] stands for this setting: read-out: Ex vivo Col1a2 (EC50 uM).
Where [15] appears, read: read-out: Ex vivo Tnmd (EC50 uM).
[16] abbreviates: Table 1, read-out: Scx-Luc (EC50 uM).
Where [17] appears, read: Table 1, read-out: Ex vivo SCX (EC50 uM).
The mark [18] stands for this setting: Table 1, read-out: Ex vivo Col1a2 (EC50 uM).
Setting [19] is: Table 1, read-out: Ex vivo Tnmd (EC50 uM).

Like-named read-outs stand apart in the source and are kept apart here.

recombinant human Jak3 (aa811-1124), sequence (P52333 811-1124): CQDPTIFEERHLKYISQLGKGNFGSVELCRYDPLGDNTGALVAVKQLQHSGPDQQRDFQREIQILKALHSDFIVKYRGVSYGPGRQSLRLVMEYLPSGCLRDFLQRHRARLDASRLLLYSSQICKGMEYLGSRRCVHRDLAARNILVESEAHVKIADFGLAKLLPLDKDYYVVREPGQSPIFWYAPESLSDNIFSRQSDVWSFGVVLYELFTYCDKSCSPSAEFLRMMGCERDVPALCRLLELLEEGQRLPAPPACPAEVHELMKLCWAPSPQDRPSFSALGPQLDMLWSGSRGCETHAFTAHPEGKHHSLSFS
recombinant human Tyk2 (aa888-1187), sequence (P29597 888-1187): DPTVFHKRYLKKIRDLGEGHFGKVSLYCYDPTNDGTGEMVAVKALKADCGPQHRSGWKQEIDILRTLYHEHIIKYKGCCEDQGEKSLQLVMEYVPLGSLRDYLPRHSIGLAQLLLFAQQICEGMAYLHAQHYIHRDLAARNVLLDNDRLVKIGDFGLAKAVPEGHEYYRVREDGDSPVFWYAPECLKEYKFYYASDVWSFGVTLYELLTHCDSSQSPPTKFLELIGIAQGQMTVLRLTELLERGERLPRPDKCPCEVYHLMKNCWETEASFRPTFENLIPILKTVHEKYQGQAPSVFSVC
recombinant human Jak1 (aa 866-1154), sequence (P23458 866-1154): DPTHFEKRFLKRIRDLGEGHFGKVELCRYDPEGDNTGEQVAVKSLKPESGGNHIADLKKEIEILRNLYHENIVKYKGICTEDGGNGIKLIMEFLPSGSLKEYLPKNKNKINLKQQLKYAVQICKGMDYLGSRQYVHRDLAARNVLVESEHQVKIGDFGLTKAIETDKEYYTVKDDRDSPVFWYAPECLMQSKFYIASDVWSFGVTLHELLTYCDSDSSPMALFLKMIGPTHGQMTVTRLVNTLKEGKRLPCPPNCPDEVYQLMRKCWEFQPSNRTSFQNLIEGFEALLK

Usually EC50 stands for the concentration giving half of the maximal effect. With `Cc1cc(S(=O)(=O)N2CC(F)(F)C[C@H]2CO)ccc1-c1ccc2[nH]nc(N)c2c1C` [Example 32, (S)-(1-((4-(3-amino-4-methyl-1H-indazol-5-yl)-3-methylphenyl)sulfonyl)-4,4-difluoropyrrolidin-2-yl)methanol], the EC50 in assay [1] (setting [9]) turned out to be 0.518 µM; in [2] (setting [10]), 5.56 µM; in assay [3] (setting [11]) it was 4.59 µM; in [4] (setting [12]), 6.1 µM. Besides, the “effect on improper healing (aberrant differentiation towards chondrogenic and osteogenic lineages)” value with tendon lesion (25 days post-treatment) is given as “able to counter some of the improper healing”. Further, the “Endochondral ossification readout Alcian Blue positive (mm^2/section), Mean” value in the assay with tendon lesion (tendons harvested 25 days post-treatment) is recorded as 25.09 mm^2/section. Besides, in the assay with Rat tail fascicles, the “tendon degeneration in unloaded condition (tendon structure, failure stress, Young's modulus)” value is on record as “could prevent the degeneration”.

As usually defined, the IC50 is the concentration that inhibits the measured activity by half. With `CC[C@@](C)(Nc1ccnc(-c2c[nH]c3ncccc23)n1)C(=O)NCC(F)(F)F` [reference compound], the EC50 in [1] (read-out: Scx-Luc (EC50 uM)) was 0.03 µM; in assay [2] (setting [13]), 1.65 µM; in [3] (setting [14]), 0.88 µM; in [4] (setting [15]), 1.77 µM. Further, the IC50 is 0.13 µM in assay [5] and 0.02 µM in assay [6] (45 uM ATP).

Turning to `N#Cc1ccc(COc2ccc(-c3cccc4nc(NC(=O)C5CC5)nn34)cc2)cn1` [reference compound], the concentration for a half-maximal effect (EC50) in [1] (setting [16]) came to 0.22 µM; in assay [2] (setting [17]), 5.77 µM; in assay [3] (setting [18]) it was 0.9 µM; in assay [4] (setting [19]), 1.31 µM. Also, the IC50 came out at 0.03 µM in assay [5], 0.38 µM in assay [7], 0.001 µM in assay [6] and 0.11 µM in [8].

`CS(=O)(=O)NCc1nc2cnc3[nH]ccc3c2n1[C@@H]1C[C@H]2CC[C@@H]1C2` [reference compound]: the EC50 in assay [1] (setting [16]) was found to be 0.18 µM; in [2] (setting [17]), 3.22 µM; in [3] (setting [18]), 3.76 µM; in [4] (setting [19]), 4.57 µM. Moreover, the IC50 in assay [5] worked out at 0.19 µM; in [7] it was 0.95 µM; in [8] it was 0.14 µM.

Take `Cc1cc(Nc2nc(N[C@@H](C)c3ncc(F)cn3)ncc2Cl)n[nH]1` [reference compound]: the EC50 in assay [1] (read-out: Scx-Luc (EC50 uM)) was 0.008 µM; in [2] (setting [13]) it was 3.37 µM; in [3] (setting [14]), 2.61 µM; in [4] (setting [15]), 3.3 µM. The IC50 amounted to 0.0007 µM in assay [5] (45 uM ATP), 0.06 µM in [7] (45 uM ATP), 0.0002 µM in [6] (45 uM ATP) and 0.002 µM in assay [8].

As for `CCS(=O)(=O)N1CC(CC#N)(n2cc(-c3ncnc4[nH]ccc34)cn2)C1`, in [8], the IC50 came to 0.03 µM.

For the compound `Cc1cc(S(=O)(=O)NC2CC(O)(C3CC3)C2)ccc1-c1ccc2[nH]nc(N)c2c1C` (centres unmarked) [Example 50, 4-(3-amino-4-methyl-1H-indazol-5-yl)-N-(3-cyclopropyl-3-hydroxycyclobutyl)-3-methylbenzenesulfonamide], the 50% effective concentration (EC50) amounted to 1.29 µM in [1] (setting [9]), 3.26 µM in [2] (setting [10]), 2.01 µM in assay [3] (setting [11]) and 7.38 µM in [4] (setting [12]).

With `C[C@@H](O)c1nc2cnc3[nH]ccc3c2n1[C@H]1CCCOC1` [reference compound], the EC50 in assay [1] (setting [16]) is 0.82 µM; in assay [2] (setting [17]), 3.31 µM; in assay [3] (setting [18]), 4.32 µM; in [4] (setting [19]), 4.19 µM.

Regarding `O=C(Nc1nc2cccc(-c3ccc(OCc4ccc[n+]([O-])c4)cc3)n2n1)C1CC1` [reference compound], the EC50 in assay [1] (setting [16]) came to 0.02 µM; in assay [2] (setting [17]), 0.36 µM; in [3] (setting [18]) it was 0.4 µM; in assay [4] (setting [19]), 5.99 µM.

`Cc1cc(S(=O)(=O)N2CCC(O)CC2)ccc1-c1ccc2[nH]nc(N)c2c1C` [Example 14, 1-((4-(3-amino-4-methyl-1H-indazol-5-yl)-3-methylphenyl)sulfonyl)piperidin-4-ol]: the EC50 was 3.92 µM in assay [1] (setting [9]), 7.28 µM in assay [2] (setting [10]), 2.64 µM in assay [3] (setting [11]) and 6.97 µM in [4] (setting [12]).

In the case of `Cc1cc(S(=O)(=O)N2CC(F)(F)C2)ccc1-c1ccc2[nH]nc(N)c2c1C` [Example 78, 5-(4-((3,3-difluoroazetidin-1-yl)sulfonyl)-2-methylphenyl)-4-methyl-1H-indazol-3-amine], the EC50 in [1] (setting [9]) came out at 2.1 µM; in assay [2] (setting [10]), 4.57 µM; in [3] (setting [11]) it was 1.16 µM; in assay [4] (setting [12]), 1.89 µM.

Consider `CC1(C)CN(C(=O)c2ccc(-c3cccc4nc(NC(=O)C5CC5)nn34)cc2)C1` [reference compound], for which the EC50 in [1] (read-out: Scx-Luc (EC50 uM)) was found to be 1.42 µM; in assay [2] (setting [17]), 3.56 µM; in assay [3] (setting [18]) it was 3.62 µM; in assay [4] (setting [19]), 3.69 µM.

On to `COc1ccc(-c2nc3c(NCC4CCNCC4)c(Cl)cnc3[nH]2)c(F)c1` [reference compound], for which the EC50 in [1] (setting [16]) turned out to be 0.51 µM; in [2] (setting [17]), 0.47 µM; in assay [3] (setting [18]), 1.15 µM; in [4] (setting [19]), 0.08 µM.

The record behind these values is US10112907B2, “Substituted indazoles for treating tendon and/or ligament injuries” (NOVARTIS AG, priority 2016, dated 2018).
